Results taken from patent publication US9174948B2, “Desferrithiocin polyether analogues” (University of Florida Research Foundation, Inc., priority 2007, dated 2015).
Read-outs that look alike come from different tables or passages of the source. One block for each molecule: values may come before it.

Experiments:
[1] = test system: Iron-Overloaded Cebus apella Primates; conditions: Cebus apella, po, 150 μmol/kg, historical data; cited from earlier work
[2] = test system: Non-Iron-Overloaded Rodents; conditions: rats, po, 300 μmol/kg, historical data; cited from earlier work
[3] = earlier preclinical studies; cited from earlier work
[4] = test system: Iron-Overloaded Cebus apella Primates; assay: Chelator-induced iron clearance in iron-overloaded Cebus apella primates; assay type: in vivo; conditions: po, 75 μmol/kg
Description: Chelator-Induced Iron Clearance in Iron-Overloaded Cebus apella Primates. The iron-clearance data for all three sets of ligands are presented (Table 2). […] J. Med. Chem. 2003, 46, 1470-1477]>1 (16.8±7.2%) [Bergeron, R. J., Wiegand, J., McManis, J. S., McCosar, B. H., Weimar, W. R., Brittenham, G. M. and Smith, R. E. Effects of C-4 Stereochemistry and C-4′ Hydroxylation on the Iron Clearing Efficiency and Toxicity of Desferrithiocin Analogues. J. Med. Chem. 1999, 42, 2432-2440], the increase is not significant. Although (S)-4′-(HO)-DADFT-PE (3) is the least lipophilic chelator in the 1-3 series, it is just as efficient (ICE, 25.4±7.4%) [Bergeron, R. J., Wiegand, J., McManis, J. S., Vinson, J. R. T., Yao, H., Bharti, N. and Rocca, J. R. (S)-4,5-Dihydro-2-(2-hydroxy-4-hydroxyphenyl)-4-methyl-4-thiazolecarboxylic Acid Polyethers: A Solution to Nephrotoxicity.
The monkeys (3.5-4 kg) were iron overloaded with intravenous iron dextran as specified in earlier publications to provide about 500 mg of iron per kg of body weight [Bergeron, R. J., Streiff, R. R., Wiegand, J., Luchetta, G., Creary, E. A. and Peter, H. H. A Comparison of the Iron-Clearing Properties of 1,2-Dimethyl-3-hydroxypyrid-4-one, 1,2-Diethyl-3-hydroxypyrid-4-one, and Deferoxamine. Blood 1992, 79, 1882-1890]; the serum transferrin iron saturation rose to between 70 and 80%. At least 20 half-lives, 60 d [Wood, J. K., Milner, P. F. and Pathak, U. N. The Metabolism of Iron-dextran Given as a Total-dose Infusion to Iron Deficient Jamaican Subjects. Br. J. Haematol. 1968, 14, 119-129], elapsed before any of the animals were used in experiments evaluating iron-chelating agents.
Fecal and urine samples were collected at 24-h intervals and processed as described previously [Bergeron, R. J., Streiff, R. R., Creary, E. A., Daniels, R. D., Jr., King, W., Luchetta, G., Wiegand, J., Moerker, T. and Peter, H. H. A Comparative Study of the Iron-Clearing Properties of Desferrithiocin Analogues with Desferrioxamine B in a Cebus Monkey Model. Blood 1993, 81, 2166-2173; Bergeron, R. J., Streiff, R. R., Wiegand, J., Vinson, J. R. T., Luchetta, G., Evans, K. M., Peter, H. and Jenny, H.-B. A Comparative Evaluation of Iron Clearance Models. Ann. N.Y. Acad. Sci. 1990, 612, 378-393; Bergeron, R. J., Wiegand, J. and Brittenham, G. M. HBED: A Potential Alternative to Deferoxamine for Iron-Chelating Therapy. Blood 1998, 91, 1446-1452]. Briefly, the collections began 4 d prior to the administration of the test drug and continued for an additional 5 d after the drug was given. Iron concentrations were determined by flame atomic absorption spectroscopy as presented in other publications [Bergeron, R. J., Streiff, R. R., Wiegand, J., Vinson, J. R. T., Luchetta, G., Evans, K. M., Peter, H. and Jenny, H.-B. A Comparative Evaluation of Iron Clearance Models. Ann. N.Y. Acad. Sci. 1990, 612, 378-393; Bergeron, R. J., Wiegand, J., Wollenweber, M., McManis, J. S., Algee, S. E. and Ratliff-Thompson, K. Synthesis and Biological Evaluation of Naphthyldesferrithiocin Iron Chelators. J. Med. Chem. 1996, 39, 1575-1581].
(§1) In the iron-clearing experiments, the rats were given a single 300 μmol/kg dose of drugs 1-9 orally (po).
(§2) J. Med. Chem. 1999, 42, 2432-2440].

[5] = Chelator tissue distribution in rodents; assay type: in vivo, rat (male Sprague-Dawley); conditions: rats, sc, 300 μmol/kg; for concentration at 0.5 h: male, Sprague-Dawley, rat, plasma
Procedure: Collection of Tissue Distribution Samples from Rodents: Male Sprague-Dawley rats (250-350 g) were given a single sc injection of the monosodium salts of 6 and 9 prepared as described above at a dose of 300 μmol/kg. At times 0.5, 1, 2, and 4 h after dosing (n=3 rats per time point) the animals were euthanized by exposure to CO2 gas. Blood was obtained via cardiac puncture into vacutainers containing sodium citrate. The blood was centrifuged, and the plasma was separated for analysis. The liver, heart, kidneys, and pancreas were then removed from the animals. […] J. Med. Chem. 2006, 49, 2772-2783]. In the current study, tissues from the (S)-3′-(HO)-DADFT-PE (9) and (S)-5′-(HO)-DADFT-PE (6) treated rats were prepared for HPLC analysis by homogenizing them in 0.5 N HClO4 at a ratio of 1:3 (w/v). Then, as a rinse, CH3OH at a ratio of 1:3 (w/v) was added and the mixture was stored at −20° C. for 30 min. This homogenate was centrifuged. The supernatant was diluted with mobile phase A (95% buffer [25 mM KH2PO4, pH 3.0]/5% CH3CN), vortexed, and filtered with a 0.2 μm membrane. Analytical separation was performed on a Discovery RP Amide C16 HPLC system with UV detection at 310 nm as described previously [Bergeron, R. J., Wiegand, J., Weimar, W. R., McManis, J. S., Smith, R. E. and Abboud, K. A. Iron Chelation Promoted by Desazadesferrithiocin Analogues: An Enantioselective Barrier. Chirality 2003, 15, 593-599; Bergeron, R. J., Wiegand, J., Ratliff-Thompson, K. and Weimar, W. R. The Origin of the Differences in (R)- and (S)-Desmethyldesferrithiocin: Iron-Clearing Properties. Ann. N.Y. Acad. Sci. 1998, 850, 202-216]. Mobile phase and chromatographic conditions were as follows: solvent A, 5% CH3CN/95% buffer; solvent B, 60% CH3CN/40% buffer. The concentrations were calculated from the peak area fitted to calibration curves by nonweighted least-squares linear regression with Rainin Dynamax HPLC Method Manager software (Rainin Instrument Co.).

[6] = test system: Non-Iron-Overloaded Rodents; assay: Chelator-induced iron clearance in non-iron-overloaded, bile duct-cannulated rats; assay type: in vivo, rat (male Sprague-Dawley); conditions: po, 300 μmol/kg; for ICE of the polyether relative to that of the parent ligand: 1 vs 3, 4 vs 6, 7 vs 9
Description: Chelator-Induced Iron Clearance in Non-Iron-Overloaded Rodents. […] J. Med. Chem. 2006, 49, 2772-2783]. Recall that iron-clearing efficiency (ICE) is defined as (net iron excretion)/(total iron-binding capacity of the chelator), expressed as a percent. The relative ICE values of compounds 1 and 2 were in keeping with their log Papp values: the more lipophilic, the larger log Papp, the more efficient the chelator. […] However, the ICE trend was in keeping with the biliary ferrokinetics (FIG. 3) and liver concentration of the chelators, for example, 3>1 (FIG. 4).
Cannulation of Bile Duct in Non-Iron-Overloaded Rats has been described previously. […]. […] The urine sample(s) was taken at 24 h intervals. Sample collection and handling are as previously described [Bergeron, R. J., Streiff, R. R., Creary, E. A., Daniels, R. D., Jr., King, W., Luchetta, G., Wiegand, J., Moerker, T. and Peter, H. H. A Comparative Study of the Iron-Clearing Properties of Desferrithiocin Analogues with Desferrioxamine B in a Cebus Monkey Model. Blood 1993, 81, 2166-2173; Bergeron, R. J., Streiff, R. R., Wiegand, J., Vinson, J. R. T., Luchetta, G., Evans, K. M., Peter, H. and Jenny, H.-B. A Comparative Evaluation of Iron Clearance Models. Ann. N.Y. Acad. Sci. 1990, 612, 378-393].
as §1, §2

[7] = Iron clearance performance ratio in primates versus rodents; assay type: in vivo, Cebus apella / rat; conditions: mean ICE primates / mean ICE rodents
Description: Iron Clearance Performance Ratio in Primates versus Rodents. The performance ratio (PR), defined as the mean ICEprimates/ICErodents, is noteworthy (Table 3). […] The mean ICE for the primate group can be compared with the mean ICE of the rodent group (Table 3). […] This is not the case with the 5′-polyether (6), whose ICE is virtually identical in the two species. The largest differences in performance ratios generally unfold with the parent ligands 1, 4, and 7.

Compound: COc1ccc(C2=N[C@@](C)(C(=O)O)CS2)c(O)c1 [Compound 2, (S)-4,5-dihydro-2-(2-hydroxy-4-methoxyphenyl)-4-methyl-4-thiazolecarboxylic acid]
Iron-Clearing Efficiency (%) [1]: 24.4±10.8%
Iron-Clearing Efficiency (%) [2]: 6.6±2.8%
toxicity / nephrotoxicity in words [3]: unacceptably toxic

concentration at 0.5 h ([5]; 0.5 h): 324 ± 20 µM
decrease of liver concentration from 0.5 h to 1 h [5]: 36%
kidney concentration ([5]; 0.5 h): 643±92 nmol/g wet weight
liver concentration ([5]; 0.5 h): 483±85 nmol/g wet weight
drop in plasma concentration relative to 0.5 h ([5]; 1 h): 39%
kidney concentration ([5]; 1 h): 435±111 nmol/g wet weight
drop in plasma concentration relative to 0.5 h ([5]; 2 h): 54%
kidney concentration ([5]; 2 h): 321±20 nmol/g wet weight
pancreas concentration ([5]; 2 h): ≈ 30 nmol/g wet weight
drop in plasma concentration relative to 0.5 h ([5]; 4 h): 82%
kidney concentration ([5]; 4 h): 116±65 nmol/g wet weight
Compound: COCCOCCOCCOc1ccc(O)c(C2=N[C@@](C)(C(=O)O)CS2)c1 [Compound 6, (S)-4,5-dihydro-2-[2-hydroxy-5-(3,6,9-trioxadecyloxy)phenyl]-4-methyl-4-thiazolecarboxylic acid]
Iron-Clearing Efficiency (%) [4]: 8.1±2.8%
relative percentages of the iron excreted in the stool and urine [4]: 56/44
Iron-Clearing Efficiency (%) [6]: 8.0±1.8%
ICE of the polyether relative to that of the parent ligand [6]: 800%
relative percentages of the iron excreted in the bile and urine [6]: 98/2

concentration at 0.5 h ([5]; 0.5 h): 62 ± 24 µM
kidney concentration ([5]; 0.5 h): 280±26 nmol/g wet weight
liver concentration ([5]; 0.5 h): 242±38 nmol/g wet weight
drop in plasma concentration relative to 0.5 h ([5]; 1 h): 26%
kidney concentration ([5]; 1 h): 259±35 nmol/g wet weight
liver concentration ([5]; 1 h): 318±46 nmol/g wet weight
drop in plasma concentration relative to 0.5 h ([5]; 2 h): 61%
kidney concentration ([5]; 2 h): 145±27 nmol/g wet weight
pancreas concentration ([5]; 2 h): 16 nmol/g wet weight
drop in plasma concentration relative to 0.5 h ([5]; 4 h): 79%
kidney concentration ([5]; 4 h): 90±7 nmol/g wet weight
Compound: COCCOCCOCCOc1cccc(C2=N[C@@](C)(C(=O)O)CS2)c1O [Compound 9, (S)-4,5-dihydro-2-[2-hydroxy-3-(3,6,9-trioxadecyloxy)phenyl]-4-methyl-4-thiazolecarboxylic acid]
Iron-Clearing Efficiency (%) [4]: 24.5±7.6%
relative percentages of the iron excreted in the stool and urine [4]: 72/28
ICE of 3′-polyether relative to 4′-polyether (3), more effective [6]: ~200%
ICE of the polyether relative to that of the parent ligand [6]: 230%
Iron-Clearing Efficiency (%) ([6]; 48 h sample collection period): 10.6±4.4%
relative percentages of the iron excreted in the bile and urine ([6]; 48 h sample collection period): 95/5

Compound: C[C@]1(C(=O)O)CSC(c2cc(O)ccc2O)=N1 [drawing 24]
ICE Primate/ICE Rodent (performance ratio) [7]: 12.6

Compound: COc1ccc(O)c(C2=N[C@@](C)(C(=O)O)CS2)c1 [drawing 25]
ICE Primate/ICE Rodent (performance ratio) [7]: 3.0

Compound: COCCOCCOCCOc1ccc(O)c(C2=N[C@@](C)(C(=O)O)CS2)c1 [drawing 26]
ICE Primate/ICE Rodent (performance ratio) [7]: 1.0

Compound: C[C@]1(C(=O)O)CSC(c2cccc(O)c2O)=N1 [drawing 27]
ICE Primate/ICE Rodent (performance ratio) [7]: 5.0

Compound: COc1cccc(C2=N[C@@](C)(C(=O)O)CS2)c1O [drawing 28]
ICE Primate/ICE Rodent (performance ratio) [7]: 1.8

Compound: COCCOCCOCCOc1cccc(C2=N[C@@](C)(C(=O)O)CS2)c1O [drawing 29]
ICE Primate/ICE Rodent (performance ratio) [7]: 2.3
